# Test results published in patent publication US8252954B2, “Processes for the preparation of calixarene derivatives” (The Curators of The University of Missouri, priority 2007, dated 2012).
# Experiments:
# [1] = system: Peripheral blood mononuclear cells (PBMC): lymphocytes and monocytes; test: 5 colour flow cytometry of PBMC after exposure to calixarenes; type: cell-based, human; conditions: 24 hours, 10^-4M, 2.5×10^-5M, 3.13×10^-6M
# Method: A 5 colour flow cytometry based assay was done to complement the MTS assay to provide a better snapshot of the toxicology profile of the calixarenes. Four concentrations from the MTS assay graph results (Control, 1, 1/4 dilution and 1/32 dilution) were chosen to illustrate the differences in cell profiles after the exposure of the calixarenes. 500,000 cells in 0.5 ml was cultured with 50 μL of calixarenes in polypropylene tubes (BD Falcon, Sarstedt) for 24 hours at 37° C., 5% CO2, 10° angle with the lid loosely closed. Polypropylene tube cultures were chosen as it provides better yield of monocytes.
# After the 24 hour incubation, a cell count was performed to ensure there were at least 200,000 cells in each sample. The cells were centrifuged at 400G for 8 minutes and washed twice with flow buffer (10% bovine serum albumin in 1×PBS) by centrifugation at 400G for 8 minutes. An antibody cocktail of 10 μL annexin V FITC (marker used to detect apoptosis of cells), 5 μL CD3 APC (marker for detection of T-cells), 2.5 μL CD14 PECy7 (marker for detection of monocytes), 5 μL HLA-DR PE (marker for detection of cell activation) and 5 μL 7-AAD (marker to detect cell death) in each tube was prepared. The cells were resuspended in 200 μL of 1× Annexin V binding buffer. 100 μL of the resuspended cells were added to flow tubes containing the antibody cocktail and was incubated at room temperature in the dark for at least 15 minutes. The samples were then read using BD FACS Canto flow cytometer within an hour of antibody incubation. The experiment was replicated in triplicates using PBMC from different individuals.
# Lymphocyte and monocyte population characteristics are summarised in the graph in FIG. 8. Lymphocyte and monocyte population numbers are based on total population while apoptotic cells, dead cells, live cells etc are based on their respective populations. Lymphocytes normally make up 60% of total population. […] However, this is most likely due to total lysis of cells, which cannot be detected by dead cell marker. Monocytes normally make up 10-15% of total population. The culturing process seems to cause most monocytes to be apoptotic due to their fragile nature.
# Phosphonated calix[5]arene was tested with flow cytometry at the following concentrations; 10^-4M, 2.5×10^-5M (1 in 4 dilution) and 3.13×10^-6M (1 in 32 dilution). Lymphocyte and monocyte population characteristics are summarised in the graph in FIG. 9. Lymphocyte and monocyte population numbers are based on total population while apoptotic cells, dead cells, live cells etc are based on their respective populations. Lymphocytes normally make up 60% of total population. […] However, this is most likely due to total lysis of cells, which cannot be detected by dead cell marker. Monocytes normally make up 10-15% of total population. Culturing process seems to cause most monocytes to be apoptotic due to their fragile nature and this finding is in line with our literature review. There is a decline in monocyte numbers with increasing concentration of this calixarene.
# [2] = DMSO, room temperature, FIG. 5
# [3] = system: Peripheral blood mononuclear cells (PBMC); test: Cell viability assay (MTS assay) on PBMC; type: cell-based, human; conditions: two fold dilutions starting from 10^−4M, FIG. 8 / FIG. 9
# Method: Cytotoxicity of these calixarenes were conducted using Peripheral Blood Mononucleus Cell line (PBMC) which were extracted from subjects blood (50 ml sample). Each calixarene compound was tested on three subjects out of a pool of 5 people (all caucasian females of 20-25 years of age). The extracted cell content represent 1% of the blood sample and comprised of Lymphocyte (60%) and monocytes (10-15%). The experiment was conducted by incubating the cells in a 96 well plate in triplicate with the calixarenes for 24 hours at different concentrations at an estimated concentration of 100000 cells per well.
# A pipeline was designed to obtain reliable preliminary toxicology data in vitro. The pipeline was designed to allow testing of any particles of interest within a short time frame. […]
# PBMC were harvested using the Ficoll method. […] The cells are then suspended in freezing media (10% DMSO in HIFCS) at 10 million cells per ml and stored as 1 ml aliquots in liquid nitrogen until it is ready for use. […]
# CellTitre 96© Aqueous One Solution Cell Proliferation Assay was used to measure cell viability. […] The PHA was added to trigger activation of lymphocytes which was hypothesised that it may alter the reading of the MTS assay. […] The plate is further incubated for another 4 hours and is read through a spectrophotometer at 490 nm. […]
Compound,monocyte numbers with increasing concentration [1],proportion of dead lymphocytes with increasing concentration [1],time over which nano-rafts dissociate into solvated monomeric units [2] [h],toxicity judged from cell viability (absorbance) [3],live monocytes population numbers with increasing concentration [1]
"5,11,17,23-Tetra(dihydroxyphosphoryl)-25,26,27,28-tetrahydroxycalix[4]arene [phosphonated calix[4]arene]",slight decline,seems to decline,36,no significant sign of toxicity,
"O=P(O)(O)c1cc2c(O)c(c1)Cc1cc(P(=O)(O)O)cc(c1O)Cc1cc(P(=O)(O)O)cc(c1O)Cc1cc(P(=O)(O)O)cc(c1O)Cc1cc(P(=O)(O)O)cc(c1O)C2 [phosphonated calix[5]arene, 5,11,17,23,29-Penta(dihydroxyphosphoryl)-31,32,33,34,35-pentahydroxycalix[5] arene]",decline,seems to decline,,less toxicity with this calixarene than with sulphonated calixarenes,seems to increase
